From ChEMBL document CHEMBL4251684, “Trichodermides A-E: New Peptaibols Isolated from the Australian Termite Nest-Derived Fungus Trichoderma virens CMB-TN16” (J Nat Prod, 2018)
Activity calls are given as the source filed them. The rule behind the calls is not given here.

Key:
Escherichia coli = assay: Antimicrobial activity against Escherichia coli ATCC 11775 after 24 hrs by spectrophotometric method; assay type: functional, organism-based; conditions: DSM 30083 = JCM 1649 = ATCC 11775
Pseudomonas aeruginosa = assay: Antimicrobial activity against Pseudomonas aeruginosa ATCC 10145 after 24 hrs by spectrophotometric method; assay type: functional, organism-based
Bacillus subtilis = assay: Antimicrobial activity against Bacillus subtilis ATCC 6051 after 24 hrs by spectrophotometric method; assay type: functional, organism-based
Staphylococcus aureus = assay: Antimicrobial activity against Staphylococcus aureus ATCC 25923 after 24 hrs by spectrophotometric method; assay type: functional, organism-based
Candida albicans = assay: Antimicrobial activity against Candida albicans ATCC 10231 after 24 hrs by spectrophotometric method; assay type: functional, organism-based
Candida parapsilosis = assay: Antimicrobial activity against Candida parapsilosis ATCC 22019 after 24 hrs by spectrophotometric method; assay type: functional, organism-based
Pichia kudriavzevii = assay: Antimicrobial activity against Candida krusei ATCC 6258 after 24 hrs by spectrophotometric method; assay type: functional, organism-based
NCI-H460 = assay: Cytotoxicity against human NCI-H460 cells assessed as inhibition of cell growth after 48 hrs by MTT assay; assay type: cell-based; conditions: NCI-H460, 48 h
SW-620 = assay: Cytotoxicity against human SW620 cells assessed as inhibition of cell growth after 48 hrs by MTT assay; assay type: cell-based; conditions: SW-620, 48 h

With `CC[C@@H](C)[C@H](NC(=O)[C@H](CCC(N)=O)NC(=O)C(C)(C)NC(C)=O)C(=O)N[C@H](C(=O)NC(C)(C)C(=O)N1CCC[C@H]1C(=O)N[C@H](C(=O)N[C@@H](CC(C)C)C(=O)NC(C)(C)C(=O)N1CCC[C@H]1C(=O)N[C@H](CO)C(C)C)[C@@H](C)CC)C(C)C` the Activity (Escherichia coli) was “inactive”, the Activity (Pseudomonas aeruginosa) was “inactive” and the Activity (Bacillus subtilis) was “inactive”. For the same molecule, the Activity (Staphylococcus aureus) was “inactive”, the Activity (Candida albicans) was “inactive” and the Activity (Candida parapsilosis) was “inactive”. For the same molecule, the Activity (Pichia kudriavzevii) was “inactive”, the IC50 (NCI-H460) was over 30 µM and the IC50 (SW-620) was over 30 µM.

With `CC[C@H](C)[C@H](NC(=O)[C@@H]1CCCN1C(=O)C(C)(C)NC(=O)[C@@H](NC(=O)[C@@H](NC(=O)[C@H](CCC(N)=O)NC(=O)[C@@](C)(CC)NC(C)=O)C(C)C)C(C)C)C(=O)N[C@@H](CC(C)C)C(=O)NC(C)(C)C(=O)N1CCC[C@H]1C(=O)N[C@H](CO)C(C)C` the Activity (Escherichia coli) was “inactive”, the Activity (Pseudomonas aeruginosa) was “inactive” and the Activity (Bacillus subtilis) was “inactive”. For the same molecule, the Activity (Staphylococcus aureus) was “inactive”, the Activity (Candida albicans) was “inactive” and the Activity (Candida parapsilosis) was “inactive”. For the same molecule, the Activity (Pichia kudriavzevii) was “inactive”, the IC50 (NCI-H460) was over 30 µM and the IC50 (SW-620) was 27.5 µM.

For `CC[C@@H](C)[C@H](NC(=O)[C@H](CCC(N)=O)NC(=O)[C@@](C)(CC)NC(C)=O)C(=O)N[C@H](C(=O)NC(C)(C)C(=O)N1CCC[C@H]1C(=O)N[C@H](C(=O)N[C@@H](CC(C)C)C(=O)NC(C)(C)C(=O)N1CCC[C@H]1C(=O)N[C@H](CO)C(C)C)[C@@H](C)CC)C(C)C`, the Activity (Escherichia coli) was “inactive”, the Activity (Pseudomonas aeruginosa) was “inactive” and the Activity (Bacillus subtilis) was “inactive”. For the same molecule, the Activity (Staphylococcus aureus) was “inactive”, the Activity (Candida albicans) was “inactive” and the Activity (Candida parapsilosis) was “inactive”. The Activity (Pichia kudriavzevii) was “inactive”, the IC50 (NCI-H460) was 19.3 µM and the IC50 (SW-620) was 18.9 µM.

`CC[C@@H](C)[C@H](NC(=O)[C@H](CCC(N)=O)NC(=O)C(C)(C)NC(C)=O)C(=O)N[C@H](C(=O)NC(C)(C)C(=O)N1CCC[C@H]1C(=O)N[C@H](C(=O)N[C@@H](CC(C)C)C(=O)NC(C)(C)C(=O)N1CCC[C@H]1C(=O)N[C@H](CO)CC(C)C)[C@@H](C)CC)C(C)C` was tested, and the Activity (Escherichia coli) was “inactive”, the Activity (Pseudomonas aeruginosa) was “inactive” and the Activity (Bacillus subtilis) was “inactive”. For the same molecule, the Activity (Staphylococcus aureus) was “inactive”, the Activity (Candida albicans) was “inactive” and the Activity (Candida parapsilosis) was “inactive”. The Activity (Pichia kudriavzevii) was “inactive”, the IC50 (NCI-H460) was over 30 µM and the IC50 (SW-620) was over 30 µM.

In the case of `CC[C@@H](C)[C@H](NC(=O)[C@H](CCC(N)=O)NC(=O)[C@@](C)(CC)NC(C)=O)C(=O)N[C@H](C(=O)NC(C)(C)C(=O)N1CCC[C@H]1C(=O)N[C@H](C(=O)N[C@@H](CC(C)C)C(=O)NC(C)(C)C(=O)N1CCC[C@H]1C(=O)N[C@H](CO)CC(C)C)[C@@H](C)CC)C(C)C`, the Activity (Escherichia coli) is reported as “inactive”, the Activity (Pseudomonas aeruginosa) is reported as “inactive” and the Activity (Bacillus subtilis) is reported as “inactive”. The Activity (Staphylococcus aureus) was “inactive”, the Activity (Candida albicans) was “inactive” and the Activity (Candida parapsilosis) was “inactive”. For the same molecule, the Activity (Pichia kudriavzevii) was “inactive”, the IC50 (NCI-H460) was 10.9 µM and the IC50 (SW-620) was 12.8 µM.
